Like-named read-outs stand apart in the source and are kept apart here. Marks after values point to notes of the source that are not given here.
Columns and labels:
[1] = tested on: rats; experiment: 28-day repeated dose study in rats with mass spectrometry-based plasma metabolite profiling (GC-MS, LC-MS, SPE-LC-MS); treatment ratios versus control; conditions: plasma, male rats
Description: (§1) A group of each 5 male and female rats was dosed once daily with the indicated compounds (see Table 9, below for compounds, applied doses and administration details) over 28 days.
(§2) Each dose group in the studies consisted of five rats per sex. Additional groups of each 5 male and female animals served as controls. Before starting the treatment period, animals, which were 62-64 days old when supplied, were acclimatized to the housing and environmental conditions for 7 days. All animals of the animal population were kept under the same constant temperature (20-24±3° C.) and the same constant humidity (30-70%). The animals of the animal population were fed ad libitum. The food to be used was essentially free of chemical or microbial contaminants. Drinking water was also offered ad libitum. […] The illumination period was 12 hours light followed by 12 hours darkness (12 hours light, from 6:00 to 18:00, and 12 hours darkness, from 18:00 to 6:00). […] The test substances (compounds in Table 9 were dosed and administered as described in the table above.
(§3) In the morning of day 7, 14, and 28, blood was taken from the retroorbital venous plexus from fasted anaesthetized animals. From each animal, 1 ml of blood was collected with EDTA as anticoagulant. The samples were centrifuged for generation of plasma. All plasma samples were covered with a N2 atmosphere and then stored at −80° C. until analysis.
(§4) For mass spectrometry-based metabolite profiling analyses plasma samples were extracted and a polar and a non-polar (lipid) fraction was obtained. For GC-MS analysis, the non-polar fraction was treated with methanol under acidic conditions to yield the fatty acid methyl esters. Both fractions were further derivatised with O-methyl-hydroxyamine hydrochloride and pyridine to convert Oxo-groups to O-methyloximes and subsequently with a silylating agent before analysis. In LC-MS analysis, both fractions were reconstituted in appropriate solvent mixtures. HPLC was performed by gradient elution on reversed phase separation columns.
(§5) Steroids and their metabolites were measured by online SPE-LC-MS (Solid phase extraction-LC-MS).
(§6) Following comprehensive analytical validation steps, the data for each analyte were normalized against data from pool samples. These samples were run in parallel through the whole process to account for process variability. The significance of treatment group values specific for sex, treatment duration and metabolite was determined by comparing means of the treated groups to the means of the respective untreated control groups using WELCH-test and quantified with treatment ratios versus control and p-values.

[2] = tested on: rats; conditions: rat, in vivo
Description: as §1, §2, §3, §4, §5, §6

[3] = day 7, high dose, Table 6b ACE inhibitor induced like toxicity
[4] = day 7, high dose, Table 1d diuretic effect
[5] = day 14, high dose, Table 1c diuretic effect
[6] = day 14, high dose, Table 6b ACE inhibitor induced like toxicity
[7] = day 14, high dose, Table 1d diuretic effect
[8] = day 28, high dose, Table 6b ACE inhibitor induced like toxicity
[9] = day 28, high dose, Table 1d diuretic effect

Threonine, treatment ratio versus control ([1]; day 7, high dose, Table 1c diuretic effect): 0.99^
Glutamate, treatment ratio versus control [1, 4]: 0.94 *
Lysophosphatidylcholine (C20:4), treatment ratio versus control [1, 4]: 0.97^
Malate, treatment ratio versus control [1, 4]: 0.75 *
Ceramide (d18:1, C24:0), treatment ratio versus control [1, 5]: 1.19 *
Choline plasmalogen No 03, treatment ratio versus control [1, 5]: 1.1 *
Sphingomyelin (d18:2, C16:0), treatment ratio versus control [1, 5]: 1.38 *
Glutamate, treatment ratio versus control [1, 7]: 0.85 *
Lysophosphatidylcholine (C20:4), treatment ratio versus control [1, 7]: 0.94^
Malate, treatment ratio versus control [1, 7]: 0.6 *
Glutamate, treatment ratio versus control [1, 9]: 0.87 *
Lysophosphatidylcholine (C20:4), treatment ratio versus control [1, 9]: 0.9 *
Malate, treatment ratio versus control [1, 9]: 0.65 *
1,5-Anhydrosorbitol, treatment ratio versus control [2]: 1.22 *
Structure (SMILES): NCCCC[C@H](N[C@@H](CCc1ccccc1)C(=O)O)C(=O)N1CCC[C@H]1C(=O)O [Lisinopril]
Lysine, treatment ratio versus control ([1]; day 7, high dose, Table 6a ACE inhibitor induced like toxicity): 0.92^
Cytosine, treatment ratio versus control [1, 3]: 0.97^
Glutamate, treatment ratio versus control [1, 3]: 0.94 *
1,5-Anhydrosorbitol, treatment ratio versus control ([1]; day 14, high dose, Table 6a ACE inhibitor induced like toxicity): 1.2 *
Cytosine, treatment ratio versus control [1, 6]: 0.89 *
Glutamate, treatment ratio versus control [1, 6]: 0.85 *
1,5-Anhydrosorbitol, treatment ratio versus control ([1]; day 28, high dose, Table 6a ACE inhibitor induced like toxicity): 1.53 *
Cytosine, treatment ratio versus control [1, 8]: 1
Glutamate, treatment ratio versus control [1, 8]: 0.87 *

Reference: US20150011423A1, “MEANS AND METHODS FOR ASSESSING KIDNEY TOXICITY” (BASF SE, priority 2011, published 2015)
